What was measured:
Format in all cases: cell-based
Puccinia striiformis = experiment: In vitro antifungal screening of strain extracts and fractions
Zymoseptoria tritici = system: Zymoseptoria tritici
Fusarium graminearum = conditions: in vitro

Takanawaene C
growth inhibition, Puccinia striiformis (Puccinia striiformis): 100% inhibition | growth inhibition, Zymospetoria tritici (Zymoseptoria tritici): 9% growth | growth inhibition, Fusarium graminearum (Fusarium graminearum): 100% growth
